Here are results for 13 compounds from patent US11021493B2, “1,4-thiazine dioxide and 1,2,4-thiadiazine dioxide derivatives as beta-secretase inhibitors and methods of use” (AMGEN INC., priority 2016, dated 2021).

Series [1] deals with T1, BACE1 (Homo sapiens (Human), UniProt P56817). Nature of the series: In vitro enzymatic BACE1 FRET assay. The format is biochemical. As to conditions: read-out: BACE1 Enzyme IC50.
Target sequence in this assay (P56817 46-501): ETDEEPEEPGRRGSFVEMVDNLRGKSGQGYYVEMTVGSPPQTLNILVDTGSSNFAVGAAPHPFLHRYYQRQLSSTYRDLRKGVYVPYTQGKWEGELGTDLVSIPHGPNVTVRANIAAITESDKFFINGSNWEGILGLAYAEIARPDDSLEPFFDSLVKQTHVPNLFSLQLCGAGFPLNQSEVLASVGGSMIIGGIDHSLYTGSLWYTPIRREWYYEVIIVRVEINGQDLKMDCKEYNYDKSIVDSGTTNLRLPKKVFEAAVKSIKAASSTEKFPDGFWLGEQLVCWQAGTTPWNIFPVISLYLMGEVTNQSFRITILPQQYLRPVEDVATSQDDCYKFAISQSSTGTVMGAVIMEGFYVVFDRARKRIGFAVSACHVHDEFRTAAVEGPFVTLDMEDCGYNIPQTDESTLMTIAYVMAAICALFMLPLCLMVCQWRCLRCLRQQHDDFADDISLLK
Another series deals with human recombinant BACE2 (Homo sapiens (Human), UniProt Q9Y5Z0). Nature of the series: In vitro enzymatic BACE2 FRET assay. Conditions: read-out: BACE2 Enzyme IC50. The series is classed as biochemical.
Chain of human recombinant BACE2 (Q9Y5Z0 63-518): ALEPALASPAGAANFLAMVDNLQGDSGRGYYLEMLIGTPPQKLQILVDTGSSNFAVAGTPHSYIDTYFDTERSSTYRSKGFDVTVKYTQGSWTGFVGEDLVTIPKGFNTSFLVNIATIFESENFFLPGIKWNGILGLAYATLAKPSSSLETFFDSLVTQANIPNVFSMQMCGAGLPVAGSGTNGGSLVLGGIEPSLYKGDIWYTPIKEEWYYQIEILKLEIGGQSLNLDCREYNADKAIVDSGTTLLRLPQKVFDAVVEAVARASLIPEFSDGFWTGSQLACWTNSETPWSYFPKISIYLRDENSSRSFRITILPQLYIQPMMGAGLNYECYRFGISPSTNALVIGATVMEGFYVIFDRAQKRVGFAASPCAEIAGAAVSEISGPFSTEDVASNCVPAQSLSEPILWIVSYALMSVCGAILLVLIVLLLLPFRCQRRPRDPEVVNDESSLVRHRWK
A further series has as its target β-secretase (Rattus norvegicus (Rat), UniProt P56819). In words: In vivo inhibition of β-secretase: Aβ reduction in rat CSF and brain.
Another series has as its target Cathepsin D (CatD) (Homo sapiens (Human), UniProt P07339). Nature of the series: In vitro enzymatic Cathepsin D (CatD) FRET assay. Conditions: read-out: Cat D Enzyme IC50. The format is biochemical.
For series [2], the target named is T1, BACE1. Nature of the series: In vitro BACE1 cell-based assay (Aβ40 in conditioned medium of cells stably expressing APP, HTRF). As to conditions: Aβ40 in conditioned media after 24 h incubation. Background: Time-resolved FRET reads energy transfer from a long-lived donor to a nearby acceptor.
Target sequence in this assay (P56817 46-501, species assumed): as the sequence (P56817 46-501) above
The conditions of series [3]: cited from earlier work.
A further series relates to BACE. Conditions: nonhuman primates; cited from earlier work.
The conditions of series [4]: higher compound dose given for three months; cited from earlier work.

Chain of β-secretase (P56819 46-501): as the sequence (P56817 46-501) above, with G82S, V162I, L165I, S180T, V182A, I340V, L393A, Q443H counted along it
Chain of Cathepsin D (CatD) (P07339 65-412, species assumed): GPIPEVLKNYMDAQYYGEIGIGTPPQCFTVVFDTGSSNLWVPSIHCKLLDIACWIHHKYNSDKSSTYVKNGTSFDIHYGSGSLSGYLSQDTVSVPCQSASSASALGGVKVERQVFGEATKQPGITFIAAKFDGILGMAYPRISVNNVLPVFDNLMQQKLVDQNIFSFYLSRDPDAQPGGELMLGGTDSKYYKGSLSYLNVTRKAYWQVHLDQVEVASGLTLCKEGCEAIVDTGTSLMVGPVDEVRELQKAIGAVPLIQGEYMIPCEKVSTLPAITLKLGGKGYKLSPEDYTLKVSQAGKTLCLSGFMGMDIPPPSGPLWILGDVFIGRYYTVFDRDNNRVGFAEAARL
Procedure for β-secretase: In Vivo Inhibition of β-Secretase
Animals to be used in this experiment can be wild type, transgenic, or gene knockout animals.
A separate group of animals receive 2% hydroxypropyl methylcellulose, 1% Tween80 alone, containing no test compound, and serve as a vehicle-control group. At the end of the test period, animals are sacrificed and brain tissues, plasma or cerebrospinal fluid are collected. […] Homogenates are centrifuged at 355,000 g, 4° C. for 30 minutes. CSF or brain supernatants are then analyzed for the presence of Aβ by specific sandwich ELISA assays based on ECL (Electrochemiluminescence) technology. For example, rat Aβ40 is measured using biotinylated-4G8 (Signet) as a capture antibody and Fab40 (an in-house antibody specific to the C-terminal of Aβ40) as a detection antibody.

The IC50 is the point on the concentration scale where inhibition reaches its midpoint. In the case of `CN1C(N)=N[C@](C)(c2cc(/C=C(\F)c3ccc(C#N)cn3)ccc2F)C2(CC2)S1(=O)=O` [Example 127, (R,Z)-6-(2-(3-(6-amino-5,8-dimethyl-4,4-dioxido-4-thia-5,7-diazaspiro[2.5]oct-6-en-8-yl)-4-fluorophenyl)-1-fluorovinyl)nicotinonitrile], the IC50 at BACE1 [1] turned out to be 6 nM; at human recombinant BACE2, 175 nM; at Cathepsin D (CatD), 129000 nM; on BACE1 [2] it was 8 nM. In addition, the “% Aβ reduction in rat CSF at 10 mpk” value at β-secretase amounted to 64%. For the same compound, the “% Aβ reduction in rat brain at 10 mpk” value at β-secretase came out at 70%.

Regarding `C#C[C@H](C)Oc1cnc(/C(F)=C/c2ccc(F)c([C@@]3(C)N=C(N)[C@@]4(CF)CC[C@@H]3S4(=O)=O)c2)cn1` [Example 128, (1R,4R,5S)-2-amino-4-(5-((Z)-2-(5-((S)-but-3-yn-2-yloxy)pyrazin-2-yl)-2-fluorovinyl)-2-fluorophenyl)-1-(fluoromethyl)-4-methyl-8-thia-3-azabicyclo[3.2.1]oct-2-ene 8,8-dioxide], the IC50 at BACE1 [1] came to 4 nM; on human recombinant BACE2 it was 147 nM; on Cathepsin D (CatD), 125000 nM; against BACE1 [2] it was 18 nM. For the same compound, on β-secretase, the “% Aβ reduction in rat CSF at 10 mpk” value is on record as 33%. Also, on β-secretase, the “% Aβ reduction in rat brain at 10 mpk” value worked out at 35%.

With `Cc1noc(COc2cnc(/C(F)=C/c3ccc(F)c([C@]4(C)CS(=O)(=O)N(C)C(N)=N4)c3)cn2)n1` [Example 146, (R,Z)-3-amino-5-(2-fluoro-5-(2-fluoro-2-(5-((3-methyl-1,2,4-oxadiazol-5-yl)methoxy)pyrazin-2-yl)vinyl)phenyl)-2,5-dimethyl-5,6-dihydro-2H-1,2,4-thiadiazine 1,1-dioxide], the concentration for half-maximal inhibition (IC50) is 3 nM at BACE1 [1], 97 nM on human recombinant BACE2, 151000 nM on Cathepsin D (CatD) and 6 nM against BACE1 [2]. On β-secretase, the “% Aβ reduction in rat CSF at 10 mpk” value amounted to 12%. Moreover, the “% Aβ reduction in rat brain at 10 mpk” value at β-secretase was found to be 16%.

Consider `C#C[C@H](C)Oc1cnc(/C(F)=C/c2ccc(F)c([C@]3(C)CS(=O)(=O)C(C)(C)C(N)=N3)c2)cn1` [Example 160, (R)-5-amino-3-(5-((Z)-2-(5-((S)-but-3-yn-2-yloxy)pyrazin-2-yl)-2-fluorovinyl)-2-fluorophenyl)-3,6,6-trimethyl-3,6-dihydro-2H-1,4-thiazine 1,1-dioxide], for which the IC50 on BACE1 [1] was 1 nM; at human recombinant BACE2, 120 nM; on Cathepsin D (CatD), 207000 nM; against BACE1 [2], 5 nM. Besides, the “% Aβ reduction in rat CSF at 10 mpk” value on β-secretase is reported as 52%. For the same compound, the “% Aβ reduction in rat brain at 10 mpk” value on β-secretase is recorded as 34%.

Regarding `CN1C(N)=N[C@](C)(c2cc(/C=C(\F)c3cnc(OCc4ncco4)cn3)cc(F)c2F)CS1(=O)=O` [Example 166, (R,Z)-3-amino-5-(2,3-difluoro-5-(2-fluoro-2-(5-(oxazol-2-ylmethoxy)pyrazin-2-yl)vinyl)phenyl)-2,5-dimethyl-5,6-dihydro-2H-1,2,4-thiadiazine 1,1-dioxide], the IC50 on BACE1 [1] worked out at 4 nM; at human recombinant BACE2, 90 nM; on Cathepsin D (CatD), 40900 nM; at BACE1 [2], 4 nM. At β-secretase, the “% Aβ reduction in rat CSF at 10 mpk” value was found to be 45%. Besides, the “% Aβ reduction in rat brain at 10 mpk” value at β-secretase amounted to 26%.

For `C#C[C@H](C)Oc1cnc(/C(F)=C/c2ccc(F)c([C@@]3(C)N=C(N)N(C)S(=O)(=O)C3(C)C)c2)cn1` [Example 186, (R)-3-amino-5-(5-((Z)-2-(5-((S)-but-3-yn-2-yloxy)pyrazin-2-yl)-2-fluorovinyl)-2-fluorophenyl)-2,5,6,6-tetramethyl-5,6-dihydro-2H-1,2,4-thiadiazine 1,1-dioxide], the half-maximal inhibitory concentration (IC50) amounted to 5 nM at BACE1 [1], 451 nM at human recombinant BACE2, 375000 nM at Cathepsin D (CatD) and 24 nM on BACE1 [2]. Also, on β-secretase, the “% Aβ reduction in rat CSF at 10 mpk” value turned out to be 19%. Moreover, the “% Aβ reduction in rat brain at 10 mpk” value at β-secretase was determined as 43%.

As for `CC#C[C@H](CC)Oc1cnc(/C(F)=C/c2ccc(F)c([C@]3(C)CS(=O)(=O)C(C)(C)C(N)=N3)c2)cn1` [Example 199, (R)-5-amino-3-(2-fluoro-5-((Z)-2-fluoro-2-(5-((S)-hex-4-yn-3-yloxy)pyrazin-2-yl)vinyl)phenyl)-3,6,6-trimethyl-3,6-dihydro-2H-1,4-thiazine 1,1-dioxide], on β-secretase, the “% Aβ reduction in rat CSF at 10 mpk” value is 43% and the “% Aβ reduction in rat brain at 10 mpk” value amounted to 58%.

In the case of `C#CCOc1cnc(/C(F)=C/c2cc(F)c(F)c([C@]3(C)CS(=O)(=O)C(C)(C)C(N)=N3)c2)cn1` [Example 204, (R,Z)-5-amino-3-(2,3-difluoro-5-(2-fluoro-2-(5-(prop-2-yn-1-yloxy)pyrazin-2-yl)vinyl)phenyl)-3,6,6-trimethyl-3,6-dihydro-2H-1,4-thiazine 1,1-dioxide], the half-maximal inhibitory concentration (IC50) on BACE1 [1] came out at 5 nM; at human recombinant BACE2, 179 nM; at Cathepsin D (CatD) it was 42700 nM; against BACE1 [2] it was 9 nM. Further, the “% Aβ reduction in rat CSF at 10 mpk” value on β-secretase is listed as 65%. In addition, the “% Aβ reduction in rat brain at 10 mpk” value on β-secretase is reported as 61%.

Regarding `C#CCOc1cnc(/C(F)=C/c2cnc(F)c([C@]3(C)CS(=O)(=O)C(C)(C)C(N)=N3)c2)cn1` [Example 205, (R,Z)-5-amino-3-(2-fluoro-5-(2-fluoro-2-(5-(prop-2-yn-1-yloxy)pyrazin-2-yl)vinyl)pyridin-3-yl)-3,6,6-trimethyl-3,6-dihydro-2H-1,4-thiazine 1,1-dioxide], the 50% inhibitory concentration (IC50) at BACE1 [1] was found to be 5 nM; on human recombinant BACE2 it was 129 nM; on Cathepsin D (CatD) it was 244000 nM; against BACE1 [2], 7 nM. Also, the “% Aβ reduction in rat CSF at 10 mpk” value on β-secretase is 68%. Further, the “% Aβ reduction in rat brain at 10 mpk” value on β-secretase was found to be 65%.

In the case of `CC1(C)C(N)=N[C@@]2(c3ccc(/C=C(\F)c4ccc(C#N)cn4)cc3F)COC[C@H]2S1(=O)=O` [Example 261, 6-((Z)-2-(4-((4aS,7aS)-3-amino-2,2-dimethyl-1,1-dioxido-4a,5,7,7a-tetrahydro-2H-furo[3,4-b][1,4]thiazin-4a-yl)-3-fluorophenyl)-1-fluorovinyl)nicotinonitrile], the concentration for half-maximal inhibition (IC50) at BACE1 [1] is 2 nM; on human recombinant BACE2, 12 nM; on Cathepsin D (CatD), 178000 nM; against BACE1 [2], 34 nM. For the same compound, the “% Aβ reduction in rat CSF at 10 mpk” value on β-secretase was determined as 69%. The “% Aβ reduction in rat brain at 10 mpk” value on β-secretase is reported as 60%.

As for `C[C@H]1OC[C@]2(c3cc(NC(=O)c4cnc(C(F)F)cn4)ccc3F)N=C(N)SC[C@H]12` [Example E2609], the clinical safety entry in series [3] (repeated doses up to 200 mg, phase I clinical trial) was “did not show clinical significant safety concerns”. The “Aβ peptide levels in the CSF and plasma” value in the series on BACE is on record as “significant reduction”.

Consider `C[C@@]1(c2cc(-c3cncnc3)c(F)cc2F)CCSC(N)=N1` [LY 2811376], for which the eye toxicity entry in series [4] is “damaged the pigment epithelium of the rat's eye”.

Take `CN1C(=N)N[C@](C)(c2cc(NC(=O)c3ccc(F)cn3)ccc2F)CS1(=O)=O` [MK-8931]: the safety profile entry in series [3] (phase I clinical trials) is reported as “no immediately noticeable side effects”.
